Test results from patent publication US5494820A, “Streptomyces braegensis strain and its cultivation in a process for producing C9 -desoxo-FK-520” (Pfizer Inc., priority 1994, dated 1996).

Experiments:
[1] = system: pathogenic filamentus fungal organisms; assay: Antimicrobial activity (general statement)
mouse T lymphocytes = assay: Immunosuppressive activity (proliferation of T lymphocytes stimulated with ionomycin plus PMA, tritiated thymidine uptake); format: cell-based, mouse (C57BI/6); details: general statement; no value given
Protocol: A positive sample in this assay will inhibit-T-cell proliferation, as indicated by reduced tritiated thymidine uptake.
Spleens from C57BI/6 mice are taken under sterile conditions and gently dissociated in ice-cold RPMI 1640 (trademark) culture medium (GIBCO (trademark)) supplemented with 10% heat-inactivated fetal calf serum (GIBCO (trademark)). Cells are pelleted by centrifugation at 1500 rpm for 8 minutes. Contaminating red cells are removed by treating the pellet with ammonium chloride lysing buffer (GIBCO (trademark)) for 2 minutes at 4° C. Cold medium is added and cells are again centrifuged at 1500 rpm for 8 minutes. […]
Purified T lymphocytes are resuspended at 10^6 cells/ml in complete culture medium composed of RPMI 1640 (trademark) medium with 10% heat-inactivated fetal calf serum, […] glutamine, 1 mM sodium pyruvate, 20 µm 2-mercaptoethanol and 50 μg/ml gentamicin. […] The proliferation of T lymphocytes is assessed by measurement of tritiated […] incorporation. […] Radioactivity of filter discs corresponding to individual wells is measured by standard liquid scintillation counting method (Beta plate counter). Mean counts per minute of replicate wells are calculated and the results expressed as percent inhibition of tritiated thymidine uptake (proliferation) as follows: [formula]

human FK-binding protein = assay: Inhibition of rotamase activity of FK-binding protein; format: biochemical

CCC1C=C(C)CC(C)CC(OC)C2OC(O)(CC(=O)N3CCCCC3C(=O)OC(C(C)=CC3CCC(O)C(OC)C3)C(C)C(O)CC1=O)C(C)CC2OC (stereo not drawn) [compound of the formula I, C9 -desoxo-FK-520]
antimicrobial activity [1]: has antimicrobial activity | immunosuppressive activity (mouse T lymphocytes): has immunosuppressive activity | inhibition of the rotamase activity of human FK-binding protein (human FK-binding protein): inhibits the rotamase activity of human FK-binding protein
